Laboratory results taken from patent US10869851B1, “Targeting NUR77 for mitigating perinatal neuroinflammation” (The United States Government as represented by the …, priority 2017, dated 2020).

Columns and labels:
Ccr2 = assay: Intrauterine LPS neuroinflammation model, fetal brain qRT-PCR of Ccr2; type: in vivo, CD1 mice
Protocol: (§1) Mice were randomly assigned to six groups: Group 1) 4 pups/PBS+normal saline (NS), Group 2) 4 pups/LPS+NS, Group 3) 4 pups/LPS+MgSO4, Group 4) 4 pups/LPS+BMZ, Group 5) 4 pups/LPS+MgSO4 and BMZ, and Group 6) 4 pups/LPS+TMPA. Except for the non-surgical control (Group 1), each group underwent intrauterine injection of either vehicle or LPS. Phosphate buffered saline (PBS) and normal saline (NS) were used for the control groups. […] Mice received 300 μl of normal saline prior to surgery as a precaution against dehydration. All surgical procedures were performed under anesthesia with isoflurane within a sterile environment using PPE and sterile surgical tools to prevent infection. E15.5 pup brains were compared 6 hours post LPS within the six treatment groups as described in Table 1:
(§2) Mice randomized to Groups 3-5 received a single subcutaneous (SQ) injection of 0.1 mg of MgSO4 and/or BMZ 30 minutes after intrauterine injection of LPS, per the Hallak protocol: 270 mg/kg SQ loading dose followed by 27 mg/kg SQ every 20 minutes for a four-hour duration. […]
(§3) A power analysis was conducted to determine the appropriate number of subjects. Using data, it was determined that a minimum number of pups per treatment group of […] was necessary to obtain statistical power at the 0.80 level.

Nos2 = assay: Intrauterine LPS neuroinflammation model, fetal brain qRT-PCR of Nos2; type: in vivo, CD1 mice
Protocol: as §1, §2, §3

Ikbkb = assay: Intrauterine LPS neuroinflammation model, fetal brain qRT-PCR of Ikbkb; type: in vivo, CD1 mice
Protocol: as §1, §2, §3

Nur77 expression = assay: Intrauterine LPS preterm labor/neuroinflammation model, Nur77 expression in fetal brain (microarray, qRT-PCR); set-up: species or system CD1 mice; details: mouse, in vivo
Protocol: as §1
Mice randomized to Groups 3-5 received a single subcutaneous (SQ) injection of 0.1 mg of MgSO4 and/or BMZ 30 minutes after intrauterine injection of LPS, per the Hallak protocol: 270 mg/kg SQ loading dose followed by 27 mg/kg SQ every 20 minutes for a four-hour duration. Mice randomized to Group 6 received a single dose of 50 mg/kg TMPA (approximately 2 mg of TMPA in 80 μl dimethyl sulfoxide (DMSO)) 30 minutes post-operative, as described by Zhan et al..

cerebral palsy = details: meta-analysis [9]; cited from earlier work
[1] = E15.5, 6 hours post LPS, LPS+treatment vs LPS

SMILES | Ccr2 expression in embryonic brain (Ccr2; mouse, in vivo) | Nos2 expression in embryonic brain (Nos2; mouse, in vivo) | Ikbkb expression in embryonic brain (Ikbkb; mouse, in vivo) | Nur77 expression (quantitative reverse-transcriptase PCR validation) (Nur77 expression) | Nur77 expression in fetal brain tissue (microarray) (Nur77 expression) | women in preterm labor treated per single case of cerebral palsy prevented (cerebral palsy) | Ccr2 expression in embryonic brain (Ccr2; [1]) | Nos2 expression in embryonic brain (Nos2; [1]) | Ikbkb expression in embryonic brain (Ikbkb; [1])
O=S(=O)([O-])[O-].[Mg+2] [MgSO4, magnesium sulfate] | only significantly lower for Ikbkb | only significantly lower for Ikbkb | significantly lower | reduced | significantly reduced | 46 | – | – | –
CCCCCCCC(=O)c1cc(OC)c(OC)c(OC)c1CC(=O)OCC [TMPA, ethyl 2-(2,3,4-trimethoxy-6-octanoylphenyl)acetate] | – | – | – | – | – | – | significantly lower vs. LPS | significantly lower vs. LPS | significantly lower vs. LPS
